The results in this text go back to patent US12564600B2, “System for enhancing therapeutic compliance of the anti-cancer compound E7766” (Eisai R&D Management Co., Ltd., priority 2019, dated 2026).

The target of this data set is T1, MRP2 (Homo sapiens, UniProt Q92887).
T1 construct: purchased Corning
Briefly: Transport in MRP2 expressing membrane vesicles. In kind it is in vitro ADME. As for the experimental part: To study the interaction of Compound 1 with hepatic efflux (ABC) transporters, TransportoCells™ membrane vesicles expressing BCRP, BSEP, MRP2, and control vector vesicles were pre-incubation with vesicle uptake buffer (47 mmol L-1 MOPs-Tris, 65 mmol L-1 KCl, 7 mmol L-1 MgCl2, pH 7.4 for BCRP; 47 mmol L-1 MOPs-Tris, 2.5 mmol L-1 GSH, 65 mmol L-1 KCl, 7 mmol L-1 MgCl2, pH 7.4 for MRP2; and 10 mmol L-1 HEPES-Tris, 100 mmol L-1 KNO3, 12.5 mmol L-1 Mg(NO3)2, and 50 mmol L-1 sucrose, pH 7.4 for BSEP) at 37° C. for 10 minutes. The transport was initiated by adding of pre-warmed 25 mmol/L MgATP, 3 μmol L-1 of Compound 1 in presence or absence of inhibitors (3 μmol L-1 of Novobioncin for BCRP, 100 μmol L-1 of MK-571 for MRP2, and 20 μmol L-1 of Ketoconazole for BSEP). The transport was terminated at designated time by adding 200 μL ice-cold vesicle uptake buffer. The complete content was then rapidly filtrated using multi-screen HTS vacuum manifold, followed by 5 washes and filtrations. The plate was allowed to dry completely and then placed onto a 96-well receiver plate. A 50 μL of elute solution (75% methanol containing the internal standard) was added into each assay well followed by centrifugation at 2000 rpm for 5 minutes. […] The yield samples from two centrifugation were combined and analyzed by LC-MS/MS. […]

The structures appear in SMILES notation. “Also recorded” adds a separate entry of the source.

T1 sequence (Q92887 whole entry): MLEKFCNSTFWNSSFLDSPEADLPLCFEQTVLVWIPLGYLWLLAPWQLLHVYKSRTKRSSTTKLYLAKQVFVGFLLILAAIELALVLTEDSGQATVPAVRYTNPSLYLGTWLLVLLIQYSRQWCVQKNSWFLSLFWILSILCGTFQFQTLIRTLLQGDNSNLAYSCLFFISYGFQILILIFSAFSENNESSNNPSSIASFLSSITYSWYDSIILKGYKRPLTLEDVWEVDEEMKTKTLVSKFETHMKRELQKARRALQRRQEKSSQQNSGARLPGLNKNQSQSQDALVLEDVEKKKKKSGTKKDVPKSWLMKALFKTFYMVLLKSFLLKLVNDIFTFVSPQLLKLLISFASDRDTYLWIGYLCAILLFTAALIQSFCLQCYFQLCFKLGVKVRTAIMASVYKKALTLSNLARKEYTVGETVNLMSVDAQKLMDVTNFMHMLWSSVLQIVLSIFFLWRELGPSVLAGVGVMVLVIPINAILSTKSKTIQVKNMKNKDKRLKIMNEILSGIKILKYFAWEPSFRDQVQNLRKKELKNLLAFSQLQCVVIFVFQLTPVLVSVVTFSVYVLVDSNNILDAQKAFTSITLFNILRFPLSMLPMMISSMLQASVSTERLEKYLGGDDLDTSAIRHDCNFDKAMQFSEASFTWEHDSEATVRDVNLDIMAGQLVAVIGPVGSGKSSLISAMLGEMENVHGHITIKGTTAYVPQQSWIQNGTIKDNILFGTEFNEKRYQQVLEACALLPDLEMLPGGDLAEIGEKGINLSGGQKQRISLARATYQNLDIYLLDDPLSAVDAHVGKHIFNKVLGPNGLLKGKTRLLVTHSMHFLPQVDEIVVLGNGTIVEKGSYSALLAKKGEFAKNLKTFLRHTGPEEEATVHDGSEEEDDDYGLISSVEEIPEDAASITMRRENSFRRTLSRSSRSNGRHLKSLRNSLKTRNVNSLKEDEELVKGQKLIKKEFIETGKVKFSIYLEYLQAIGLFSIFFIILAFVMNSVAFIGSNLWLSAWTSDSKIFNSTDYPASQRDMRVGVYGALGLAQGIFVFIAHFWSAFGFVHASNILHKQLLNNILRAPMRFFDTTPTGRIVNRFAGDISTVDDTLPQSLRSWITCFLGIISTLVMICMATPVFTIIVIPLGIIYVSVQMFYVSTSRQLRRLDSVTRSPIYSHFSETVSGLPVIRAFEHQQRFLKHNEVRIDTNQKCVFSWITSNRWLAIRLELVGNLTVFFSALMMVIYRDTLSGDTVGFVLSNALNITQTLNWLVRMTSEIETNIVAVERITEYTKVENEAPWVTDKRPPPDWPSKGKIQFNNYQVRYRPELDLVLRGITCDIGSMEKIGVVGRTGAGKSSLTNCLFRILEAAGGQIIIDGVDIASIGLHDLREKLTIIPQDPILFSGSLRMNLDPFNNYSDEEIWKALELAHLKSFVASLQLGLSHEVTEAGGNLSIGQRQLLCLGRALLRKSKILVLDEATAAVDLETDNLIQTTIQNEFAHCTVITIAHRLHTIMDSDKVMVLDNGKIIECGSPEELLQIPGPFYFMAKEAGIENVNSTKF

In the case of `O=[P@]1(S)OC[C@H]2O[C@@H]3[C@H](F)[C@@H]2O[P@](=O)(S)OC[C@H]2O[C@H]([C@H](F)[C@@H]2O1)n1cnc2c(ncnc21)NC/C=C/CNc1ncnc2c1ncn23` [Compound 1], the “substrate of biliary efflux transporter MRP2” value was “sequential biliary efflux; also recorded: substrate”.
